Paper PMC4536133 (Antiviral research, 2015)

Columns and labels:
HSV-1 [1] = test: Plaque assay of supernatant of HSV-1 infected Vero cells; assay type: cell-based, herpes simplex virus type 1 (KOS) in Vero cells
HSV-1 [2] = test: qPCR for HSV-1 DNA copy number in iPSC-neurons; assay type: cell-based, herpes simplex virus type 1 (KOS) in human iPSC-neurons; conditions: acutely infected iPSC-neurons, 24hpi, 50 μM; untreated 3,461,970
HSV-1 [3] = test: FISH analysis of HSV-1 viral DNA in infected cells; assay type: cell-based, herpes simplex virus type 1; conditions: HSV-1 infected cells
HSV-1 ICP0 and ICP4 = test: Immunocytochemistry of HSV-1 immediate early genes ICP0 and ICP4; assay type: cell-based, herpes simplex virus type 1; conditions: infected cells
HSV-1 [4] = test: Reactivation of quiescent HSV-1 infection in iPSC-neurons, flow cytometry; assay type: cell-based, herpes simplex virus type 1 (KOS) in human iPSC-neurons; conditions: compared to vehicle
HSV-1 [5] = test: Plaque assay of supernatant of reactivated iPSC-neurons titrated on Vero cells; assay type: cell-based, herpes simplex virus type 1 (KOS) in human iPSC-neurons; conditions: 5BVdU+IFN-α then drug 48h, NaB reactivation
VZV = VZV infection of ARPE-19 cells, luciferase activity; assay type: cell-based; conditions: PAA

Row | SMILES | infectious particles in supernatant of treated infected cultures (plaque assay) (HSV-1 [1]; 50 μM) | viral DNA copy number by FISH (HSV-1 [3]) | expression of HSV-1 immediate early genes ICP0 and ICP4 (HSV-1 ICP0 and ICP4) | other results
1 | Nc1nc2c(ncn2COCCO)c(=O)[nH]1 [ACV, Acyclovir] | undetectable | substantial reduction | markedly reduced expression | number of copies of viral DNA in 5 ng of total DNA (HSV-1 [2]): 483 copies; mean intensity of fluorescence (MFI) after reactivation (HSV-1 [4]): lowered; infectious viral particles in supernatant after reactivation (HSV-1 [5]): no detectable infectious viral particles
2 | CO/C1=C\C(C)=C\[C@@H](C)[C@@H](O)[C@@H](C)C/C(C)=C/C=C/[C@H](OC)[C@@H]([C@@H](C)[C@@H](O)[C@H](C)[C@@]2(O)C[C@@H](O)[C@H](C)[C@@H](C(C)C)O2)OC1=O [BFLA, bafilomycin A1] | – | – | – | infectious particles in supernatant of treated infected cultures (plaque assay) (HSV-1 [1]; BFLA 0.1 μM): undetectable
3 | CCN(CC)CCCC(C)Nc1ccnc2cc(Cl)ccc12 (centres unmarked) [CQ, chloroquine] | undetectable | – | – | –
4 | O=C(O)CP(=O)(O)O [PAA, phosphonoacetic acid] | – | substantial reduction | markedly reduced expression | inhibition of VZV infection (VZV): effectively inhibited
